Patent publication US20080131475A1, “Methods of Use of Dual Ppar Agonist Compounds and Drug Delivery Devices Containing Such Compounds” (priority 2005, published 2008)

How the values were obtained:
[1] = system: restenotic lesion formation and arterial stenosis in diabetic swine; assay: diabetic swine model of restenosis; assay type: in vivo; settings: streptozotocin-diabetic juvenile swine, procedure as in non-diabetic stent model
Protocol: (§1) The treatment and/or prevention of restenosis in vivo in diabetics and non-diabetics can be evaluated as follows: • 1. The beneficial effects of a compound of the present invention on restenosis are ascertained in a swine model of restenosis. Stainless steel balloon-expandable tubular stents, 18 mm long, are coated with a thin layer of a polymer, i.e., poly-n-butyl methacrylate, containing […] of (R)-1-{4-[5-methyl-2-(4-trifluoromethyl-phenyl)-oxazol-4-ylmethoxy]-benzenesulfonyl}-2,3-dihydro-1H-indole-2-carboxylic acid (Compound A) per stent. Juvenile swine (25-35 kg) undergo placement of bare metal stents which elute Compound A in the left anterior descending, circumflex or right coronary artery. The guiding catheter is used as a reference to obtain a 1.2:1 to 1.4:1 stent-to-artery ratio compared with the baselinevessel diameter. […] At 7 days or 28 days, the animals are euthanized after completion of coronary angiography for quantitative analysis. • Immediately following euthanasia, the hearts are harvested, and the coronary arteries are perfusion-fixed with 10% buffered formalin at 60-80 mm Hg for 30 minutes via the aortic stump. […] Vessel wall expression of proliferating cell nuclear antigen (PCNA) (Santa Cruz Biotechnology), pRb (Pharmingen), monocyte chemotactic protein (MCP)-1 (R&D Systems) or interleukin (IL)-6 (R&D Systems) were evaluated by Western blot analysis. […]

[2] = drug release from coated stent pieces in PBS pH 7.4 or PEG/water; assay type: physicochemical; settings: 2 cm coated stent pieces, PBS pH 7.4 or PEG 400/water 40/60 v/v, 37° C., solutions changed daily
Protocol: Four 2 cm pieces of coated stents as described above are placed into 100 mL of phosphate buffer solution (PBS) having a pH of 7.4. Another 4 pieces from each series are placed into 100 mL polyethylene glycol (PEG)/water solution (40/60 v/v, MW of PEG=400). The stent pieces are incubated at 37° C. in a shaker. The buffer and PEG solutions are changed daily and different assays are performed on the solution to determine the released (R)-1-{4-[5-methyl-2-(4-trifluoromethyl-phenyl)-oxazol-4-ylmethoxy]-benzenesulfonyl}-2,3-dihydro-1H-indole-2-carboxylic acid concentrations. Such assays can show a stable release of (R)-1-{4-[5-methyl-2-(4-trifluoromethyl-phenyl)-oxazol-4-ylmethoxy]-benzenesulfonyl}-2,3-dihydro-1H-indole-2-carboxylic acid from coated stents for more than 45 days. By the term “stable-release of (R)-1-{4-[5-methyl-2-(4-trifluoromethyl-phenyl)-oxazol-4-ylmethoxy]-benzenesulfonyl}-2,3-dihydro-1H-indole-2-carboxylic acid” is meant less than 10% of variation of the drug release. Controlled-release techniques used by a person skilled in the art allow an unexpected easy adaptation of the required drug release rate. […]

[3] = system: restenotic lesion and arterial stenosis in stented coronary arteries; assay: swine model of restenosis with coronary stents eluting Compound A; assay type: in vivo; settings: juvenile swine, poly-n-butyl methacrylate coated stent containing 200 mg Compound A per stent, coronary artery, 7 or 28 days
Protocol: as §1

## Cc1oc(-c2ccc(C(F)(F)F)cc2)nc1COc1ccc(S(=O)(=O)N2c3ccccc3C[C@@H]2C(=O)O)cc1 [Compound A, (R)-1-{4-[5-methyl-2-(4-trifluoromethyl-phenyl)-oxazol-4-ylmethoxy]-benzenesulfonyl}-2,3-dihydro-1H-indole-2-carboxylic acid]
[1]
  extent of restenotic lesion formation and arterial stenosis: reduction
[2]
  duration of stable release from coated stents (less than 10% of variation of the drug release): more than 45 days
[3]
  extent of restenotic lesion and arterial stenosis: marked reduction
